Results from PMC7522027 (Disease Models & Mechanisms, 2020).
“And” between values parts separate entries of the source, which are not always exact repeats. Identical values can stand only once.

Columns and labels:
ACV-R1B (ALK4) = target: T1, ACV-R1B (ALK4) (Homo sapiens, UniProt P36896); assay: radiometric protein kinase assay, ALK4; format: biochemical; conditions: [ATP] = 1 μM; Fig. 7C
T1 construct: purchased ProQinase GmbH (Freiburg, Germany); host or cells: bacteria (so in the source)
T1 sequence (P36896 24-505): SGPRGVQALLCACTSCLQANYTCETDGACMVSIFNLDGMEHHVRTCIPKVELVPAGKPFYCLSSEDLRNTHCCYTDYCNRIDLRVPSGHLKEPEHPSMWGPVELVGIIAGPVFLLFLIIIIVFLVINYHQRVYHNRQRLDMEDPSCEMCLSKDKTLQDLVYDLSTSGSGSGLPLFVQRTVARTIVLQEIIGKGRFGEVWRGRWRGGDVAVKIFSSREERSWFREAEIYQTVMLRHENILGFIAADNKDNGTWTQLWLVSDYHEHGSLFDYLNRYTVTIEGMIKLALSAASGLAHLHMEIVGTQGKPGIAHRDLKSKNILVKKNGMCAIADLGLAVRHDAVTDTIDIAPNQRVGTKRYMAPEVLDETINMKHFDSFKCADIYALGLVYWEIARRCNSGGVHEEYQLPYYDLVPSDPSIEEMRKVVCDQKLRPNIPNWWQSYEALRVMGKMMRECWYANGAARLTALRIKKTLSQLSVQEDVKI

[1] = system: MEK and anaplastic lymphoma kinase (ALK) versus ALK serine/threonine kinases; assay: kinase panel: sensitivity of control kinases relative to ALK serine/threonine kinases; format: biochemical, human; conditions: ratio of IC50 values
Experimental: IC50 values were calculated using Prism 5.04 for Windows (GraphPad, San Diego, CA, USA; www.graphpad.com). The mathematical model used was ‘Sigmoidal response (variable slope)’ with parameters ‘top’ fixed at 100% and ‘bottom’ at 0%. The fitting method used was a least-squares fit.

caALK2 = target: T2, caALK2 (Homo sapiens, UniProt Q04771, Q207D); assay: caALK2-induced SMAD1/5 phosphorylation in HEK 293T cells; format: cell-based; conditions: cercosporamide 1-10 µM, LDN193189 200 nM
T2 construct: expressed in transfected cells; host or cells: HEK 293T
T2 sequence (Q04771 21-509 Q207D): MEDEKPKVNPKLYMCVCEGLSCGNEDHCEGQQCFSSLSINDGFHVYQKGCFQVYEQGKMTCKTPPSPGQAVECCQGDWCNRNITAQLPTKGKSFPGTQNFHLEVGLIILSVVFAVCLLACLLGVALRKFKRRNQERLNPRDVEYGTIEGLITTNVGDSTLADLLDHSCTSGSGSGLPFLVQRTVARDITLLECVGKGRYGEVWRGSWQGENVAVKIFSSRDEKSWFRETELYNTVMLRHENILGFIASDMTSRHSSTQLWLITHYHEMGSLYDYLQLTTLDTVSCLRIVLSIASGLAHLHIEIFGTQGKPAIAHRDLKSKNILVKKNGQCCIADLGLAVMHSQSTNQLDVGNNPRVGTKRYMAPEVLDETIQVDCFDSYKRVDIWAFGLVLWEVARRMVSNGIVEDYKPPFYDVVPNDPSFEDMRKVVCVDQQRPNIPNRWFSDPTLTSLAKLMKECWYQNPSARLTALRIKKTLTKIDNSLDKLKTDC
Text: (§1) HepG2 or HEK 293T cells were lysed in Laemmli sample buffer. Proteins were separated by sodium dodecyl sulfate polyacrylamide gel electrophoresis (SDS-PAGE) and transferred onto […] polyvinylidene difluoride (PVDF) membrane (IPVH00010, Merck Millipore). Membranes were blocked using 5% non-fat dry milk in Tris-buffered saline with 0.1% Tween 20 (655204, Merck Millipore) and probed with the respective primary and secondary antibodies. The signal was detected using Clarity™ Western ECL Substrate (1705060, Bio-Rad) and ChemiDoc Imaging System (17001402, Bio-Rad). The antibodies used for immunoblotting were raised against the following proteins: phospho-SMAD1/5/8 ([Persson et al., 1998]; 1:1000), SMAD1 (Cell Signaling Technology, #6944; 1:1000), GAPDH (Merck Millipore, #G8795; 1:5000) and hemagglutinin (HA; Roche, #12CA5; 1:1000).
(§2) For experiments with the caALK type I receptor constructs, HEK 293T cells were seeded in 24-well plates at ∼90% confluency and transfected with the DNA expression constructs in the presence of PEI. Thirty hours after transfection, the cells were added to serum-starved medium and treated with compounds for 16 h (overnight). Subsequently, the cells were washed with PBS and lysed in Laemmli sample buffer. […]

[2] = system: BMP2-induced SMAD1/5-dependent BRE-luc transcriptional reporter; assay: BMP2-induced BRE-luc transcriptional reporter assay in HepG2 cells; format: cell-based, human; conditions: HepG2, BMP2 50 ng/ml; cercosporamide 100 nM to 10 µM, LDN-193189 200 nM
Experimental: For luciferase transcriptional reporter assays, HepG2 cells were seeded in 9-cm plates at ∼60% confluency and transfected with polyethyleneimine (PEI). Twenty-four hours later, the transfected cells were seeded in 24-well plates at ∼60% confluency. Another 24 h later, the cells were serum starved for 6 h. Subsequently the cells were treated with compound or DMSO for 30 min. Thereafter, the cells were stimulated with BMP2 in the presence of compounds (or DMSO) for 16 h (overnight). Subsequently, the cells were washed with PBS and lysed. Luciferase activity was measured using the luciferase reporter assay system from Promega (Leiden, The Netherlands) by a Perkin Elmer luminometer Victor^3 1420. Each DNA transfection mixture was equalized with empty vector when necessary and every experiment was performed in triplicate. β-galactosidase expression construct was co-transfected and β-galactosidase was measured to normalize for differences in transfection efficiency. The BRE-luc reporter construct has been reported previously ([Korchynskyi and ten Dijke, 2002]).

zebrafish embryos = assay: in situ hybridization with krox20/myod probes in treated zebrafish embryos; format: in vivo, zebrafish (Danio rerio); conditions: 750 nM from 6 hpf, fixed at 12 hpf
Experimental: Embryos were treated from approximately 6 hpf until 12 hpf when they were fixed in 4% paraformaldehyde overnight. In situ hybridization was performed using krox20 and myod anti-sense RNA probes as described elsewhere ([Thisse and Thisse, 2008]).

caALK1 = target: T3, caALK1 (Homo sapiens, UniProt P37023, Q201D); assay: caALK1-induced SMAD1/5 phosphorylation in HEK 293T cells; format: cell-based; conditions: cercosporamide 1-10 µM, LDN193189 200 nM
T3 construct: expressed in transfected cells; host or cells: HEK 293T
T3 sequence (P37023 22-503 Q201D): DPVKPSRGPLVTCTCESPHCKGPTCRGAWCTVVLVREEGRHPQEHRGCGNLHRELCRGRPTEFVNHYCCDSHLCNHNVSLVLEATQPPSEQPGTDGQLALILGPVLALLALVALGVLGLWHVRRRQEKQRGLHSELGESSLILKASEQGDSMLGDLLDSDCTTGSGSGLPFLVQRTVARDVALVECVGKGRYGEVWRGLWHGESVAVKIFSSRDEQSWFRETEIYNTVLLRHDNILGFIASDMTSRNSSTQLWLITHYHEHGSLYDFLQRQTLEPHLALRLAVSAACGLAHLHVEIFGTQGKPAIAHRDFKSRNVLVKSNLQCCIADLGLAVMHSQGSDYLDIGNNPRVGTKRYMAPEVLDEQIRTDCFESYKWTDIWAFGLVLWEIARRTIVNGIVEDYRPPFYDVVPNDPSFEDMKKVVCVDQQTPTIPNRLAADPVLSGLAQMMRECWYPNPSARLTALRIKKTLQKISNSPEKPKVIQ
Text: as §1, §2

caALK3 = target: T4, caALK3 (Homo sapiens, UniProt P36894, Q233D); assay: caALK3-induced SMAD1/5 phosphorylation in HEK 293T cells; format: cell-based; conditions: cercosporamide 1-10 µM, LDN193189 200 nM
T4 construct: expressed in transfected cells; host or cells: HEK 293T
T4 sequence (P36894 24-532 Q233D): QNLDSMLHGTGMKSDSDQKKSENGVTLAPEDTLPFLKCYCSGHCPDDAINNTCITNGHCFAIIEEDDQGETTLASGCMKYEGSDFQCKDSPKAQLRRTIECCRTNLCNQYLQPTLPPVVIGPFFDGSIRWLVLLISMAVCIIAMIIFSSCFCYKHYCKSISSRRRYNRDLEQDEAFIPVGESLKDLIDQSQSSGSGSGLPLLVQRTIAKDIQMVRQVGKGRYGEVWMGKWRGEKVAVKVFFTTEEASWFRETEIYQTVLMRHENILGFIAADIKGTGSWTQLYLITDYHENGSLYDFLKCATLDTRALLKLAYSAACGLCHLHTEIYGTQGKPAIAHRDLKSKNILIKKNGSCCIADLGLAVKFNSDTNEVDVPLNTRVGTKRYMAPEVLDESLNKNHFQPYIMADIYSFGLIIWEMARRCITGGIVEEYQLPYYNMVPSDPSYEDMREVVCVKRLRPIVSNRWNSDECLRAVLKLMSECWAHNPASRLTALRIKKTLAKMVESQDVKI
Text: as §1, §2

BMPR1A (ALK3) = target: T5, BMPR1A (ALK3) (Homo sapiens, UniProt P36894); assay: radiometric protein kinase assay, ALK3; format: biochemical; conditions: [ATP] = 0.3μM; Fig. 7F
T5 construct: purchased ProQinase GmbH (Freiburg, Germany); host or cells: bacteria (so in the source)
T5 sequence (P36894 24-532): as the sequence (P36894 24-532 Q233D) above, with D210Q counted along it

ACV-RL1 (ALK1) = target: T6, ACV-RL1 (ALK1) (Homo sapiens, UniProt P37023); assay: radiometric protein kinase assay, ALK1; format: biochemical; conditions: [ATP] = 1 μM; Fig. 7D
T6 construct: purchased ProQinase GmbH (Freiburg, Germany); host or cells: bacteria (so in the source)
T6 sequence (P37023 22-503): as the sequence (P37023 22-503 Q201D) above, with D180Q counted along it

Q: Which results are given for `CC(=O)C1=C(O)C=C2Oc3c(C(N)=O)c(O)cc(O)c3[C@]2(C)C1=O` [cercosporamide, Cercosporamide]?
A: IC50 (ACV-R1B (ALK4)): 0.15 µM; MEK and tyrosine kinase ALK less sensitive than the ALK serine/threonine kinases [1]: 7- to 67 fold; effect on caALK2-induced SMAD1/5 phosphorylation (caALK2): inhibited SMAD1/5 phosphorylation; effect on BMP2-induced BRE-luc activity [2]: inhibited the BMP2-induced response in a dose-dependent manner; krox20 expression pattern (zebrafish embryos): induced lateral expression of krox20; fraction of embryos showing the pattern (zebrafish embryos; one fraction per depicted pattern): 7/15 and 6/15 and 2/15; effect on caALK1-induced SMAD1/5 phosphorylation (caALK1): inhibited SMAD1/5 phosphorylation; effect on caALK3-induced SMAD1/5 phosphorylation (caALK3): inhibited SMAD1/5 phosphorylation; IC50 (BMPR1A (ALK3)): 0.36 µM; IC50 (ACV-RL1 (ALK1)): 3.3 µM
